Tests used:
[1] = target: human activated kallikrein enzyme (Homo sapiens, UniProt P03952); assay: Plasma kallikrein inhibition, fluorogenic PFR-AMC substrate, 500 pM activated kallikrein format; assay type: biochemical; settings: 500 pM activated kallikrein, 300 uM PFR-AMC, 30 min preincubation, 10 min reaction; read-out: Primary Dose Response Assay: Average EC50
In short: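 High-enzyme format of the fluorogenic peptide assay, with EC50 taken from AMC signal: 500 pM activated kallikrein, 300 uM Pro-Phe-Arg-AMC, 30 min compound preincubation and 10 min reaction, all at room temperature, pH 7.5.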

[2] = target: T1, plasma kallikrein (Homo sapiens, UniProt P03952); assay: Neat human plasma assay, FXIIa contact pathway-activated, PFR-AMC substrate; assay type: biochemical; settings: citrated human plasma 78% final, 10 nM human FXIIa, 100 μM PFR-AMC; read-out: Human Plasma Assay: IC90
T1 construct: from tissue
T1 sequence (P03952 391-638 limits assumed): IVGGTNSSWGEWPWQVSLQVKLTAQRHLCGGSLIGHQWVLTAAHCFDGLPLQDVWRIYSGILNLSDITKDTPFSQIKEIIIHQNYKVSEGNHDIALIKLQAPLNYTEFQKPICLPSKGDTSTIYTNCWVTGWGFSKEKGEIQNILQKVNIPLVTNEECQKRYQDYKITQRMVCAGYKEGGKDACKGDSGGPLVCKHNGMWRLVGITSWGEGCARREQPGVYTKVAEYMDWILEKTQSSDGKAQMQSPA
T1 sequence (P03952 20-390 partner limits assumed): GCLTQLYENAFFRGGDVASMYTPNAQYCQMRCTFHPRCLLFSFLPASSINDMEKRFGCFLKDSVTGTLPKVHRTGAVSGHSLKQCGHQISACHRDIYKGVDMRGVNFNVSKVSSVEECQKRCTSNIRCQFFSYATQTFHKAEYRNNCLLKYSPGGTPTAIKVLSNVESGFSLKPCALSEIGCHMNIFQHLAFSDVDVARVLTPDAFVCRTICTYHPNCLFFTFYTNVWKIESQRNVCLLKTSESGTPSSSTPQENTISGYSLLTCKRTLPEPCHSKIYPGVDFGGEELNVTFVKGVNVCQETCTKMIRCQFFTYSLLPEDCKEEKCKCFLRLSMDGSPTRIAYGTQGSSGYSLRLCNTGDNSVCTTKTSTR
In short: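 Compound inhibition of plasma kallikrein measured as PFR-AMC (100 μM) cleavage rate over 5 min at room temperature in 78% citrated human plasma activated with 10 nM FXIIa (Tris pH 7.5 buffer). IC50/IC90 from 4-parameter fit of rate versus inhibitor concentration.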

Chain of human activated kallikrein enzyme (P03952 391-638 limits assumed): as the sequence (P03952 391-638 limits assumed) above
Chain of human activated kallikrein enzyme (P03952 20-390 partner limits assumed): as the sequence (P03952 20-390 partner limits assumed) above

Cc1ccnc([C@H]2C[C@@H]2C(=O)Nc2cc(N(C)Cc3cn4cc(C5CC5)cc(N5CC(=O)N(CCO)C5=O)c4n3)cc(C3CC3)n2)n1 [Example I-637, (1S,2S)—N-(6-cyclopropyl-4-(((6-cyclopropyl-8-(3-(2-hydroxyethyl)-2,4-dioxoimidazolidin-1-yl)imidazo[1,2-a]pyridin-2-yl)methyl)(methyl)amino)pyridin-2-yl)-2-(4-methylpyrimidin-2-yl)cyclopropane-1-carboxamide]
EC50 [1]: < 1 nM | IC90 [2]: < 400 nM

Cc1ccnc([C@H]2C[C@@H]2C(=O)Nc2cc(SCc3cn4cc(C5CC5)cc(N5CC(=O)N(C)C5=O)c4n3)nc(C)n2)n1 [Example I-638, (1S,2S)—N-(6-(((6-cyclopropyl-8-(3-methyl-2,4-dioxoimidazolidin-1-yl)imidazo[1,2-a]pyridin-2-yl)methyl)thio)-2-methylpyrimidin-4-yl)-2-(4-methylpyrimidin-2-yl)cyclopropane-1-carboxamide]
EC50 [1]: < 1 nM | IC90 [2]: 400 to 1500 nM

Cc1cc(NC(=O)[C@H]2C[C@@H]2c2nccc(C)n2)cc(NCc2cn3cc(C4CC4)cc(N4CC(=O)N(C)C4=O)c3n2)n1 [Example I-639, (1S,2S)—N-(2-(((6-cyclopropyl-8-(3-methyl-2,4-dioxoimidazolidin-1-yl)imidazo[1,2-a]pyridin-2-yl)methyl)amino)-6-methylpyridin-4-yl)-2-(4-methylpyrimidin-2-yl)cyclopropane-1-carboxamide]
EC50 [1]: < 1 nM | IC90 [2]: < 400 nM

Cc1ccnc([C@H]2C[C@@H]2C(=O)Nc2cc(NCc3cn4cc(C5CC5)cc(N5CC(=O)N(C)C5=O)c4n3)c(C(F)(F)F)nn2)n1 [Example I-640, (1S,2S)—N-(5-(((6-cyclopropyl-8-(3-methyl-2,4-dioxoimidazolidin-1-yl)imidazo[1,2-a]pyridin-2-yl)methyl)amino)-6-(trifluoromethyl)pyridazin-3-yl)-2-(4-methylpyrimidin-2-yl)cyclopropane-1-carboxamide]
EC50 [1]: < 1 nM | IC90 [2]: < 400 nM

CN1C(=O)CN(c2cc(C3CC3)cn3cc(CN(C)c4cnnc(NC(=O)[C@H]5C[C@@H]5c5cccc(Cl)c5)c4)nc23)C1=O [Example I-641, (1S,2S)-2-(3-chlorophenyl)-N-(5-(((6-cyclopropyl-8-(3-methyl-2,4-dioxoimidazolidin-1-yl)imidazo[1,2-a]pyridin-2-yl)methyl)(methyl)amino)pyridazin-3-yl)cyclopropane-1-carboxamide]
EC50 [1]: < 1 nM | IC90 [2]: 400 to 1500 nM

O=C(Nc1cc(NCc2cn3cc(C4CC4)cc(N4CCNCC4=O)c3n2)ncn1)[C@H]1C[C@@H]1c1cccc(Cl)c1 [Example I-647, (1S,2S)-2-(3-chlorophenyl)-N-(6-(((6-cyclopropyl-8-(2-oxopiperazin-1-yl)imidazo[1,2-a]pyridin-2-yl)methyl)amino)pyrimidin-4-yl)cyclopropane-1-carboxamide]
EC50 [1]: < 1 nM | IC90 [2]: 400 to 1500 nM

Cc1ccnc([C@H]2C[C@@H]2C(=O)Nc2cc(N[C@H](C)c3cn4cc(C(C)C)cc(N5CC(=O)N(C)C5=O)c4n3)ncn2)n1 [Example I-679, (1S,2S)—N-(6-(((R)-1-(6-isopropyl-8-(3-methyl-2,4-dioxoimidazolidin-1-yl)imidazo[1,2-a]pyridin-2-yl)ethyl)amino)pyrimidin-4-yl)-2-(4-methylpyrimidin-2-yl)cyclopropane-1-carboxamide]
EC50 [1]: < 1 nM | IC90 [2]: < 400 nM
